Like-named read-outs stand apart in the source and are kept apart here.

Assay type in all cases: cell-based
Experiment [1] has as its target T1, CaV2.2 (Homo sapiens, UniProt Q00975).
T1 construct: expressed in transfected cells; host or cells: unnamed doxycycline-inducible cell line
Put plainly: High-throughput CaV2.2/Kir2.3 FLIPR fluorescent assay. To be noted: Fluo-4 FLIPR, closed or inactivated state not stated, read-out: FLIPR data CaV2.2. In outline:
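IC50 was derived by logistic fitting of the FLIPR Fluo-4 signal recorded over 3 min after a 130 mM KCl stimulus. Before stimulation, cells (channel expression induced with doxycycline, 29 °C on assay day) were kept in pH 7.4 buffer with 2 mM KCl for the closed-state format or 12.5 mM KCl for the inactivated-state format.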

The target in experiment [2] is T2, CaV3.1 (Homo sapiens, UniProt O43497).
T2 construct: expressed in transfected cells; host or cells: unnamed doxycycline-inducible cell line
Nature of the experiment: High-throughput CaV3.1 T-type FLIPR fluorescent assay. As to conditions: Fluo-4 FLIPR. In outline: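 Doxycycline-induced CaV3.1 cells were loaded with Fluo-4 at 29 °C and pre-incubated with compound for 20 min at 29 °C in low-Ca2+ buffer (0.001 mM CaCl2, pH 7.2). Calcium entry was triggered by buffer containing 6 mM CaCl2, and Fluo-4 fluorescence was recorded on FLIPR for 3 min. IC50 came from logistic fits.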

In experiment [3] the target is T3, CaV3.2 (Homo sapiens, UniProt O95180).
T3 construct: expressed in transfected cells; host or cells: unnamed doxycycline-inducible cell line
Put plainly: High-throughput CaV3.2/Kir2.3 T-type FLIPR fluorescent assay. As to conditions: Fluo-4 FLIPR, closed or inactivated state not stated. In outline: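 Doxycycline-induced cells loaded with Fluo-4, preincubated 20 min at 29°C with compound in 2 mM KCl (closed-state) or 7.6 mM KCl (inactivated-state) buffer, pH 7.4. Calcium entry triggered by 12 mM or 14.5 mM KCl respectively; fluorescence read 3 min by FLIPR, IC50 from logistic fit.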

T2 sequence (O43497 whole entry): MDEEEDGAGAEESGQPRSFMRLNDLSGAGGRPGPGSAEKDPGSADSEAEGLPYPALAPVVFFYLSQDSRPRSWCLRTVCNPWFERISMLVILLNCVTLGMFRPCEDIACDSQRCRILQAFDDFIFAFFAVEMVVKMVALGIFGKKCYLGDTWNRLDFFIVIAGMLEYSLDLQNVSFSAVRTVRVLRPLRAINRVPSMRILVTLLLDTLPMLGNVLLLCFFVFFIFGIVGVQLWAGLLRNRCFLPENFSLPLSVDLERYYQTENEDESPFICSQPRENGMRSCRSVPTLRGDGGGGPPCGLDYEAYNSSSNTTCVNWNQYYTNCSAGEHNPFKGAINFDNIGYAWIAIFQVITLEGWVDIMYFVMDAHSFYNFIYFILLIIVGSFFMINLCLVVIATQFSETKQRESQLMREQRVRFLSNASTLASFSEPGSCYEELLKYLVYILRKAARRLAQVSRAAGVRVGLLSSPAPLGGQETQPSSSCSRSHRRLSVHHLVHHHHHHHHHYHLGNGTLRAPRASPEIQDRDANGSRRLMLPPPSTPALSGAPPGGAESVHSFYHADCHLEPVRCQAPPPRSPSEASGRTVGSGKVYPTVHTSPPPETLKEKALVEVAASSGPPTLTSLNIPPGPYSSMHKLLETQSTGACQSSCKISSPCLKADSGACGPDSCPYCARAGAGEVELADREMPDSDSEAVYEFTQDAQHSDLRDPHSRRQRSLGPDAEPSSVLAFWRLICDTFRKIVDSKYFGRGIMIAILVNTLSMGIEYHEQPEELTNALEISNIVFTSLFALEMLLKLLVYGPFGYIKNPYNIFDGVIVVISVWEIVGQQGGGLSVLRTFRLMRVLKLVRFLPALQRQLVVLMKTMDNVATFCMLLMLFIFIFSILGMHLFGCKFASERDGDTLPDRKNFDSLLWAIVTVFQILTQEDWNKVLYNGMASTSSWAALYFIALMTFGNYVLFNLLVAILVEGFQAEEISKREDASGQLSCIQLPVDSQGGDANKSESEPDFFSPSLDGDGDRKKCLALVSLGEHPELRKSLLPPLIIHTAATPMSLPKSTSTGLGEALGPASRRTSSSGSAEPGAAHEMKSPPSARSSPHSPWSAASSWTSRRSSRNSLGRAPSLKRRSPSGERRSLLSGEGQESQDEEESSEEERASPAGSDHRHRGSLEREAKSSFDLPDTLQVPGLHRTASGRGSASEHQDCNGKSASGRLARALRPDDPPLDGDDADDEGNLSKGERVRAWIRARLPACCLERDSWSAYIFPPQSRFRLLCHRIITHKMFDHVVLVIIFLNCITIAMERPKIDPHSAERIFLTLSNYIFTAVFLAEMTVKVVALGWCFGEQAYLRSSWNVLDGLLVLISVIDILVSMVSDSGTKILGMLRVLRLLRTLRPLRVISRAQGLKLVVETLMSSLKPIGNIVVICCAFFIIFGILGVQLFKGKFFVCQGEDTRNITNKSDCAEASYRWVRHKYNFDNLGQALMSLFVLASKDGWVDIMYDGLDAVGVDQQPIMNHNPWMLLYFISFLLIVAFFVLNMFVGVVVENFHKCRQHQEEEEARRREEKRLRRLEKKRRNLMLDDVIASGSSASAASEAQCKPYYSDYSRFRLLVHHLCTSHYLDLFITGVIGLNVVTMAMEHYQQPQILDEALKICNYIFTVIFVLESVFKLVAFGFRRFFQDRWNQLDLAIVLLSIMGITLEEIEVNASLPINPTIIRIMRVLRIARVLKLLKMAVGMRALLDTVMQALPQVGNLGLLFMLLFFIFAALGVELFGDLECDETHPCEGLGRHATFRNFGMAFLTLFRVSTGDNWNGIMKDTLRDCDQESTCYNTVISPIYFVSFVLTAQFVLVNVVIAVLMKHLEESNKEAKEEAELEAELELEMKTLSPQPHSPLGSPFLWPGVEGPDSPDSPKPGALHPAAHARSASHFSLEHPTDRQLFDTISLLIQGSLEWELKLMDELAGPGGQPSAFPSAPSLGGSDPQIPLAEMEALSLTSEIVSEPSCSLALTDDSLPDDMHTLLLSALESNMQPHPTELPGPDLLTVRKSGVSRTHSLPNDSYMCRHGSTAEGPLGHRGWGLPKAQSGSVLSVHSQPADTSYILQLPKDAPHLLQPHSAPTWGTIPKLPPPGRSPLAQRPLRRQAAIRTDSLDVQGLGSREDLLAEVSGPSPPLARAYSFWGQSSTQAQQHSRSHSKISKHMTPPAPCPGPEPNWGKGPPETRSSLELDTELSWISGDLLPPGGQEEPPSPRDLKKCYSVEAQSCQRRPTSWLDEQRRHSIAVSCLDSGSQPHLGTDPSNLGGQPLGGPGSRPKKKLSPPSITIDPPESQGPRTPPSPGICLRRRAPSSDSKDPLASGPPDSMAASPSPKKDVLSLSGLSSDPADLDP
T3 sequence (O95180 whole entry): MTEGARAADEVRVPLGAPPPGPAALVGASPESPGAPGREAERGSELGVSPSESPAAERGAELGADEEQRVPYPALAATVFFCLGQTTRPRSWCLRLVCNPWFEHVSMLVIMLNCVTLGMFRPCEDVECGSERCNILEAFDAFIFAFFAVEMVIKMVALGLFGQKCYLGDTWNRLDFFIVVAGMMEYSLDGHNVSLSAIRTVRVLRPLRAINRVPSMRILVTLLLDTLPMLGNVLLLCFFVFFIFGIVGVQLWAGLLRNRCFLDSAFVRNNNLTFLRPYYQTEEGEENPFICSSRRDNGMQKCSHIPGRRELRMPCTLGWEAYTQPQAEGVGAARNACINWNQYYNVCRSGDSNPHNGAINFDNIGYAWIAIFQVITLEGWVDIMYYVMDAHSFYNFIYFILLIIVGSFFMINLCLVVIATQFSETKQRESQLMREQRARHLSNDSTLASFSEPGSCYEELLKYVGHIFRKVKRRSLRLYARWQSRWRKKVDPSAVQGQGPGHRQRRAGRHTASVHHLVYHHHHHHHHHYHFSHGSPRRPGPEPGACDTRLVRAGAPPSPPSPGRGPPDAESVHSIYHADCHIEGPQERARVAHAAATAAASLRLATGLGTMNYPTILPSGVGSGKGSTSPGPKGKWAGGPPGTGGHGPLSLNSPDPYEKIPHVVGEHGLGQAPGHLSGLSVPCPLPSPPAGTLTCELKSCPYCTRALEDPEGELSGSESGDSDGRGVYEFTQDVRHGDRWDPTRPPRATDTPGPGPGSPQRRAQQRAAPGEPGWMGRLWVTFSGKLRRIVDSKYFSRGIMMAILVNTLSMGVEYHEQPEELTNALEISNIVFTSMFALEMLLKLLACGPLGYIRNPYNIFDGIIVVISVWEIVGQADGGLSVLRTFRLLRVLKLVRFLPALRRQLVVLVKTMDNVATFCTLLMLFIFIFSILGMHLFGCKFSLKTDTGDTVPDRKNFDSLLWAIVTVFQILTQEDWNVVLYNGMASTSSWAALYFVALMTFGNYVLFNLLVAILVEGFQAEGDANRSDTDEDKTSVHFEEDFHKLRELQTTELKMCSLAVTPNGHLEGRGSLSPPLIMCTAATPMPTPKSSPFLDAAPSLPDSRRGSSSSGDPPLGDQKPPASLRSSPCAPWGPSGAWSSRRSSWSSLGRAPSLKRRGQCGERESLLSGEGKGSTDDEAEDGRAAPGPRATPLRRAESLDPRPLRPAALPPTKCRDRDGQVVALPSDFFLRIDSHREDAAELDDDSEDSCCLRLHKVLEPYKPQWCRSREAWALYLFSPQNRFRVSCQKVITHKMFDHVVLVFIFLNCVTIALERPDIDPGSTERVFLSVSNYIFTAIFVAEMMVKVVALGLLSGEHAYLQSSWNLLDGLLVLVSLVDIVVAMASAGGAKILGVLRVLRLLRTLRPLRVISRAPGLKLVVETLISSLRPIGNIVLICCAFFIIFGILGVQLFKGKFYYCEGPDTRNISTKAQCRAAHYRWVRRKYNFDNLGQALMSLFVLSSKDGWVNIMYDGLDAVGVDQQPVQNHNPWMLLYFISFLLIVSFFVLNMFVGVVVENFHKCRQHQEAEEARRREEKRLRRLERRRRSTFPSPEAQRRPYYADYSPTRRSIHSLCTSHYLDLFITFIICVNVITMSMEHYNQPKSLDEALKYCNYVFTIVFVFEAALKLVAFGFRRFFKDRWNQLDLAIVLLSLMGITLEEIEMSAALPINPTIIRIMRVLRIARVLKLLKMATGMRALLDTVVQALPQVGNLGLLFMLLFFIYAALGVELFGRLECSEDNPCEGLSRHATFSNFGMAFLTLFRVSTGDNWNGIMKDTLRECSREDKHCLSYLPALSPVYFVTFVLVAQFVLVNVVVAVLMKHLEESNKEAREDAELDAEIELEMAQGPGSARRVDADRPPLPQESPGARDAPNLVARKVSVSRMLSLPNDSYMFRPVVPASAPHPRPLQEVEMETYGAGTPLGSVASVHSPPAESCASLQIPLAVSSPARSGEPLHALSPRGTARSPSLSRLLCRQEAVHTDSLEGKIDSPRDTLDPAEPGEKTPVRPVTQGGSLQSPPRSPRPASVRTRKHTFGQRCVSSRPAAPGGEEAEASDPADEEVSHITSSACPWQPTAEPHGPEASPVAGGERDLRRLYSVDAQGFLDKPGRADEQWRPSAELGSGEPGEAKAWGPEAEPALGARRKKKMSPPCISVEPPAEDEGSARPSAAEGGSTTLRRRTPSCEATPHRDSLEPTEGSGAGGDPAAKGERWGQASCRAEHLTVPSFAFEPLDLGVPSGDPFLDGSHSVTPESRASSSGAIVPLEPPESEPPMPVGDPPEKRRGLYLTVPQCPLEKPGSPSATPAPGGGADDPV

Take `COc1cc(C(=O)NCc2ccc(S(=O)(=O)c3cccc(C(F)(F)F)c3)cc2)cc(Cl)n1` [Compound 14, 2-chloro-6-methoxy-N-(4-((3-(trifluoromethyl)phenyl)sulfonyl)benzyl)isonicotinamide]: the IC50 in experiment [1] (Table 4) came out at 850 nM; in experiment [2] (Table 4), 2380 nM; in experiment [3] (Table 4), 430 nM.

Turning to `O=C(NCc1ccccc1S(=O)(=O)c1cccc(C(F)(F)F)c1)c1ccc(C(F)(F)F)cn1` [Compound 39, 5-(trifluoromethyl)-N-(2-((3-(trifluoromethyl)phenyl)sulfonyl)benzyl)picolinamide], the results for the IC50 in experiment [1] (Table 4), in experiment [2] (Table 4) and in experiment [3] (Table 4) were 740 nM, 1040 nM and 1250 nM, respectively.

Regarding `O=C(NCc1ccc(S(=O)(=O)c2cccc(C(F)(F)F)c2)cn1)[C@H]1C[C@@H](C2CCCCC2)CN1` [Compound 107, (2R,4S)-4-cyclohexyl-N-((5-((3-(trifluoromethyl)phenyl)sulfonyl)pyridin-2-yl)methyl)pyrrolidine-2-carboxamide], the IC50 in experiment [1] (Table 4) was found to be 450 nM; in experiment [2] (Table 4), 6980 nM; in experiment [3] (Table 4), 2090 nM.

Regarding `Cn1nc(C(F)(F)F)cc1C(=O)NCc1cc(S(=O)(=O)c2cccc(C(F)(F)F)c2)ccn1` [Compound 109, 1-methyl-3-(trifluoromethyl)-N-((4-((3-(trifluoromethyl)phenyl)sulfonyl)pyridin-2-yl)methyl)-1H-pyrazole-5-carboxamide], the results for the IC50 in experiment [1] (Table 4), in experiment [2] (Table 4) and in experiment [3] (Table 4) were 820 nM, 6530 nM and 3970 nM, respectively.

As for `Cn1nc(C(F)(F)F)cc1C(=O)NCc1cccc(S(=O)(=O)c2cccc(C(F)(F)F)c2)c1` [Compound 22, 1-methyl-3-(trifluoromethyl)-N-(3-((3-(trifluoromethyl)phenyl)sulfonyl)benzyl)-1H-pyrazole-5-carboxamide], the IC50 in experiment [1] (Table 4) was determined as 220 nM; in experiment [2] (Table 4), 3010 nM; in experiment [3] (Table 4) it was 640 nM.

With `O=C(NCc1ccccc1S(=O)(=O)c1cccc(C(F)(F)F)c1)[C@@H]1C[C@@H](C2CCCCC2)CN1` [Compound 75, (2S,4S)-4-cyclohexyl-N-(2-((3-(trifluoromethyl)phenyl)sulfonyl)benzyl)pyrrolidine-2-carboxamide], the results for the IC50 in experiment [1] (Table 4), in experiment [2] (Table 4) and in experiment [3] (Table 4) were 1060 nM, 5470 nM and 1590 nM, respectively.

In the case of `O=C(NCc1ccc(S(=O)(=O)c2cccc(C(F)(F)F)c2)cc1)c1ccc(Cl)c(F)c1` [Compound 1, 4-chloro-3-fluoro-N-(4-((3-(trifluoromethyl)phenyl)sulfonyl)benzyl)benzamide], the IC50 in experiment [1] (Table 4) was determined as 760 nM; in experiment [2] (Table 4) it was 1290 nM; in experiment [3] (Table 4), 620 nM.

For the compound `CC(C)(C(=O)N1CCN(c2cccc(C(F)(F)F)c2)CC1)S(=O)(=O)c1cccc(C(F)(F)F)c1` [Compound 132, 2-methyl-1-(4-(3-(trifluoromethyl)phenyl)piperazin-1-yl)-2-((3-(trifluoromethyl)phenyl)sulfonyl)propan-1-one], the IC50 in experiment [1] (Table 5) amounted to 1210 nM; in experiment [2] (Table 5), 4080 nM; in experiment [3] (Table 5), 3630 nM.

As to `O=C(NCc1ccccc1S(=O)(=O)c1cccc(C(F)(F)F)c1)c1cc(F)cc(Cl)c1` [Compound 37, 3-chloro-5-fluoro-N-(2-((3-(trifluoromethyl)phenyl)sulfonyl)benzyl)benzamide], the IC50 in experiment [1] (Table 4) came out at 680 nM; in experiment [2] (Table 4) it was 1420 nM; in experiment [3] (Table 4) it was 1610 nM.

Turning to `O=C(NCc1cccc(S(=O)(=O)c2cccc(C(F)(F)F)c2)c1)c1ccc(Cl)c(F)c1` [Compound 17, 4-chloro-3-fluoro-N-(3-((3-(trifluoromethyl)phenyl)sulfonyl)benzyl)benzamide], the IC50 was 140 nM in experiment [1] (Table 4), 1630 nM in experiment [2] (Table 4) and 940 nM in experiment [3] (Table 4).

As to `O=C(NCc1ccc(S(=O)(=O)c2cccc(C(F)(F)F)c2)cn1)c1ccc(C(F)(F)F)nc1` [Compound 90, 6-(trifluoromethyl)-N-((5-((3-(trifluoromethyl)phenyl)sulfonyl)pyridin-2-yl)methyl)nicotinamide], the IC50 in experiment [1] (Table 4) came to 610 nM; in experiment [2] (Table 4), 900 nM; in experiment [3] (Table 4), 2070 nM.

With `O=C(NCc1ccc(S(=O)(=O)c2cccc(C(F)(F)F)c2)cn1)c1cc(F)cc(Cl)c1` [Compound 89, 3-chloro-5-fluoro-N-((5-((3-(trifluoromethyl)phenyl)sulfonyl)pyridin-2-yl)methyl)benzamide], the IC50 in experiment [1] (Table 4) was determined as 970 nM; in experiment [2] (Table 4) it was 1580 nM; in experiment [3] (Table 4) it was 1740 nM.

For the compound `CS(=O)(=O)c1cc(C(=O)NCc2ccccc2S(=O)(=O)c2cccc(C(F)(F)F)c2)cc(C(F)(F)F)n1` [Compound 42, 2-(methylsulfonyl)-6-(trifluoromethyl)-N-(2-((3-(trifluoromethyl)phenyl)sulfonyl)benzyl)isonicotinamide], the IC50 in experiment [1] (Table 4) amounted to 640 nM; in experiment [2] (Table 4), 2890 nM; in experiment [3] (Table 4), 3240 nM.

For the compound `CS(=O)(=O)c1cc(C(=O)NCc2ccc(S(=O)(=O)c3cccc(C(F)(F)F)c3)cn2)cc(C(F)(F)F)n1` [Compound 94, 2-(methylsulfonyl)-6-(trifluoromethyl)-N-((5-((3-(trifluoromethyl)phenyl)sulfonyl)pyridin-2-yl)methyl)isonicotinamide], the IC50 in experiment [1] (Table 4) amounted to 820 nM; in experiment [2] (Table 4), 1630 nM; in experiment [3] (Table 4) it was 1450 nM.

In the case of `CC(C)(C(=O)NCCc1c[nH]c2ccc(F)cc12)S(=O)(=O)c1cccc(C(F)(F)F)c1` [Compound 131, N-(2-(5-fluoro-1H-indol-3-yl)ethyl)-2-methyl-2-((3-(trifluoromethyl)phenyl)sulfonyl)propanamide], the IC50 in experiment [1] (Table 5) came to 790 nM; in experiment [2] (Table 5), 6660 nM; in experiment [3] (Table 5), 5210 nM.

For `CC(C)(C(=O)Nc1ccc(Oc2ccc(F)c(Cl)c2)nc1)S(=O)(=O)c1cccc(OC(F)(F)F)c1` [Compound 121, N-(6-(3-chloro-4-fluorophenoxy)pyridin-3-yl)-2-methyl-2-((3-(trifluoromethoxy)phenyl)sulfonyl)propanamide], the IC50 stood at 660 nM in experiment [1] (Table 5), 4900 nM in experiment [2] (Table 5) and 1150 nM in experiment [3] (Table 5).

As to `CC(C)S(=O)(=O)c1cc(C(F)(F)F)cnc1C(=O)NCc1ccccc1S(=O)(=O)c1cccc(C(F)(F)F)c1` [Compound 44, 3-(isopropylsulfonyl)-5-(trifluoromethyl)-N-(2-((3-(trifluoromethyl)phenyl)sulfonyl)benzyl)picolinamide], the IC50 in experiment [1] (Table 4) turned out to be 230 nM; in experiment [2] (Table 4), 720 nM; in experiment [3] (Table 4), 1030 nM.

Take `O=C(NCc1ccc(S(=O)(=O)c2cccc(C(F)(F)F)c2)cc1)c1ccnc(C(F)(F)F)c1` [Compound 16, 2-(trifluoromethyl)-N-(4-((3-(trifluoromethyl)phenyl)sulfonyl)benzyl)isonicotinamide]: the IC50 turned out to be 940 nM in experiment [1] (Table 4), 1430 nM in experiment [2] (Table 4) and 640 nM in experiment [3] (Table 4).

On to `N[C@@H]1CCCC[C@H]1C(=O)NCc1ccc(S(=O)(=O)c2cccc(C(F)(F)F)c2)cc1` [Compound 81, (1R,2R)-2-amino-N-(4-((3-(trifluoromethyl)phenyl)sulfonyl)benzyl)cyclohexanecarboxamide], for which the IC50 in experiment [1] (Table 4) was 680 nM; in experiment [2] (Table 4) it was 8240 nM; in experiment [3] (Table 4), 4560 nM.

Turning to `O=C(NCc1ccc(S(=O)(=O)c2cccc(C(F)(F)F)c2)cc1)c1ccnc(C(F)(F)F)n1` [Compound 9, 2-(trifluoromethyl)-N-(4-((3-(trifluoromethyl)phenyl)sulfonyl)benzyl)pyrimidine-4-carboxamide], the results for the IC50 in experiment [1] (Table 4), in experiment [2] (Table 4) and in experiment [3] (Table 4) were 490 nM, 2850 nM and 1690 nM, respectively.

`O=C(NCc1ccc(S(=O)(=O)c2cccc(C(F)(F)F)c2)cn1)c1ccc(F)c(Cl)c1` [Compound 104, 3-chloro-4-fluoro-N-((5-((3-(trifluoromethyl)phenyl)sulfonyl)pyridin-2-yl)methyl)benzamide]: the IC50 is 600 nM in experiment [1] (Table 4), 1540 nM in experiment [2] (Table 4) and 880 nM in experiment [3] (Table 4).

For `CC(C)(CCNC(=O)C(C)(C)S(=O)(=O)c1cccc(C(F)(F)F)c1)S(=O)(=O)c1cccc(C(F)(F)F)c1` [Compound 150, 2-methyl-N-(3-methyl-3-((3-(trifluoromethyl)phenyl)sulfonyl)butyl)-2-((3-(trifluoromethyl)phenyl)sulfonyl)propanamide], the IC50 in experiment [1] (Table 5) amounted to 250 nM; in experiment [2] (Table 5), 1770 nM; in experiment [3] (Table 5), 1020 nM.

For `CC(C)S(=O)(=O)c1cc(C(F)(F)F)cnc1C(=O)NCc1ccc(S(=O)(=O)c2cccc(C(F)(F)F)c2)cc1` [Compound 33, 3-(isopropylsulfonyl)-5-(trifluoromethyl)-N-(4-((3-(trifluoromethyl)phenyl)sulfonyl)benzyl)picolinamide], the IC50 in experiment [1] (Table 4) is 100 nM; in experiment [2] (Table 4) it was 920 nM; in experiment [3] (Table 4), 1010 nM.
